From patent publication US6455469B1, “Herbicidal composition” (Ishihara Sangyo Kaisha, Ltd., priority 2000, dated 2002)

Legend:
Assay type in all cases: in vivo
[1] = tested on: six broadleaf weeds (CASOB, IPOHE, ABUTH, AMARE, CHEAL, XANST); assay: Greenhouse pre-emergence test, mean control of six broadleaf weeds; conditions: soil surface spray 1 day after planting, visual rating 0-100% after two weeks, grass herbicides 1000 g/ha, atrazine 1680 g/ha, isoxaflutole 78 g/ha, B-128 125 g/ha
Description: (§1) Seeds of weed species were sown in 10 cm square plastic pots containing a 3:2:1 sand:soil:peat mixture. Species included six broadleaf weeds, CASOB (Cassia obtusifolia, L., sicklepod), IPOHE (Ipomoea hederacea, L., ivyleaf morningglory), ABUTH (Abutilon theophrastii, velvetleaf, AMARE (Amaranthus retroflexus, redroot pigweed), CHEAL (Chenopodium album, lambsquarters) and XANST (Xanthium strumarium, cocklebur ), four grass weeds, SORHA (Sorghum halepense, johnsongrass), SETVI (Setaria viridis, green foxtail), ECHCG (Echinochloa crus-galli, bamyardgrass), and DIGSA (Digitria sanguinalis, large crabgrass) and four crops species, Zea mays, Glycine max L. Triticum aestivum, and Oryza sativa. Herbicide treatments were applied in water carrier via automated track sprayer to the soil surface of these pots 1 day after planting. The sprayer was calibrated to deliver the material in a volume of 187 l/ha through a TJ8001E spray nozzle at a pressure of 40 PSI.
(§2) Treatments included the compounds of formula I numbers 1, 15, 16 and 23, the commercial grass herbicides metolachlor S (Dual II Magnum®), acetochlor (Harness®), alachlor (Lasso MT®) alone and in combination with three broadleaf herbicides, atrazine, isoxaflutole and compound B-128 (Table 2). All grass herbicides (compounds 1, 15, 16, 23, metolachlor S, acetochlor and alachor were applied at a rate of 1000 g/ha. The broadleaf herbicides were applied at 1680 g/ha for atrazine, 78 g/ha for isoxaflutole and 125 g/ha for B-128.
(§3) After treatment, pots were returned to a greenhouse where they were watered and held in good growth conditions for two weeks. At the end of two weeks, herbicidal efficacy was evaluated visually using a rating system from 0-100%, where 0=no inhibition of growth, and 100=complete death of all plants in the testing unit. Results are reported in table 3 as the mean control of all six broadleaf weeds, mean control of all four grass weeds and the phytotoxicity to maize.

[2] = tested on: four grass weeds (SORHA, SETVI, ECHCG, DIGSA); assay: Greenhouse pre-emergence test, mean control of four grass weeds; conditions: soil surface spray 1 day after planting, visual rating 0-100% after two weeks, grass herbicides 1000 g/ha, atrazine 1680 g/ha, isoxaflutole 78 g/ha, B-128 125 g/ha
Description: as §1, §2, §3

Setaria viridis = assay: Field trials, control of Setaria viridis; conditions: grass herbicides 1000 g/ha, atrazine 1680 g/ha, B-128 150 g/ha
Description: (§4) Two field trials were established on contrasting soil types. Trial 1 was on a soil with low organic matter and high sand content, and trial 2 was on a clay loam soil with moderate amounts of organic matter. In both cases, the soil was overseeded (followed by light tillage) with seeds of Amaranthus retroflexus, Abutilon theophrasti, Chenopodium album, Ipomoea hederacea, and Setaria viridis to ensure consistent weed populations. Maize was planted with 30 inches between rows. Immediately after planting the maize, herbicidal treatments were applied using a boom sprayer equipped with Tee Jet 110-015 nozzles applying the spray solution at a rate of 187 l/hectare. Untreated check plots were included as the basis for comparison of herbicidal efficacy.
(§5) Treatments included the compound of formula I number 16, the commercial grass herbicides metolachlor S (Dual II Magnum®), acetochlor (Harness®) and dimethenamid (Frontier®) alone and in combination with two broadleaf herbicides, atrazine and B-128. All grass herbicides (compound 16, metolachlor S, acetochlor and dimethenamid) were applied at a rate of 1000 g/ha. The broadleaf herbicides were applied at 1680 g/ha for atrazine and 150 g/ha for B-128.
(§6) Observations on percent weed control and phytotoxicity to maize were made at 35 days after treatment for field trial 1 and 21 days after application for field trial 2. All visual estimates were made in comparison to untreated check plots. Results reported are the mean control of broadleaf weeds, and percent control for Setaria viridis, the predominant grassy weed in this experiment.

broadleaf weeds = assay: Field trials, mean control of broadleaf weeds; conditions: grass herbicides 1000 g/ha, atrazine 1680 g/ha, B-128 150 g/ha
Description: as §4, §5, §6

maize [3] = assay: Field trials, phytotoxicity to maize; conditions: grass herbicides 1000 g/ha, atrazine 1680 g/ha, B-128 150 g/ha
Description: as §4, §5, §6

[4] = tested on: Amaranthus retroflexus, Abutilon theophrasti, Chenopodium album, Ipomoea hederacea, and Setaria viridis; assay: Field trials, overall herbicidal performance in words
Description: as §4, §5
Observations on percent weed control and phytotoxicity to maize were made at 35 days after treatment for field trial 1 and 21 days after application for field trial 2. […]

maize [5] = assay: Greenhouse pre-emergence test, phytotoxicity to maize
Description: as §1, with “PSI. […]” for “PSI.”
as §3, with “Results are reported in table 3 as the mean control of all six broadleaf weeds, mean control of all four grass weeds and the phytotoxicity to maize.” left out

[6] = field trial 1, low organic matter, high sand content soil, 35 days after application
[7] = field trial 2, moderate organic matter, high clay content soil, 21 days after application

Row | SMILES | broadleaf control [1] [%] | Grass control [2] [%] | S. viridis control (Setaria viridis; [6]) [%] | S. viridis control (Setaria viridis; [7]) [%] | broadleaf control (broadleaf weeds; [6]) [%] | broadleaf control (broadleaf weeds; [7]) [%] | Phytotoxicity (maize [3]; [6]) [%] | Phytotoxicity (maize [3]; [7]) [%] | performance (in words) ([4]; higher organic, high clay soil, compared with the three standards) | efficacy (in words) ([4]; sandy, low organic matter soil, combined with atrazine or B-128) | phytotoxicity to maize (in words) (maize [5]; in vivo) | Phytotoxicity (maize [5]; phytotoxicity to maize, greenhouse, visual rating 0-100% after two weeks, grass herbicides 1000 g/ha, atrazine 1680 g/ha, isoxaflutole 78 g/ha, B-128 125 g/ha) [%]
1 | CCc1cccc(CC)c1N(CC#N)C(=O)CCl [Cpd 1] | 22 | 100 |  |  |  |  |  |  |  |  |  | 
2 | C#CCN(C(=O)CCl)c1c(C)cccc1CC [Cpd 15] | 32 | 100 |  |  |  |  |  |  |  |  |  | 
3 | C#CCN(C(=O)CCl)c1c(CC)cccc1CC [Cpd 16] | 53 | 100 | 96 | 75 | 33 | 24 | 0 | 2 | relatively better than two of the three standards | equal efficacy as other herbicides |  | 
4 | C#CCN(C(=O)CCl)c1c(C)cccc1C [Cpd 23] | 33 | 100 |  |  |  |  |  |  |  |  | moderately more phytotoxic | 
5 | CCc1cccc(C)c1N(C(=O)CCl)[C@@H](C)COC [Metolachlor S, (S)-2-chloro-N-(2-ethyl-6-methylphenyl)-N-(2-methoxy-1-methylethyl)acetamide] | 41 | 100 | 100 | 60 | 40 | 18 | 0 | 1 |  |  |  | 0
6 | CCOCN(C(=O)CCl)c1c(C)cccc1CC [acetochlor, 2-chloro-N-ethoxymethyl-6′-ethylacet-o-toluidide] | 75 | 100 | 99 | 87 | 50 | 36 |  |  |  |  |  | 
7 | COCC(C)N(C(=O)CCl)c1c(C)csc1C (centres unmarked) [dimethenamid, 2-chloro-N-[(1-methy-2-methoxyl)ethyl]-N-(2,4-dimethyl-3-thienyl)-acetamide] | 68 | 100 | 100 | 86 | 44 | 26 |  |  |  |  |  | 
